# Reference: PMC5572576 (The Lancet. Oncology, 2017)
# Tested on: patients with R/R AML
# Conditions: in vivo
smiles,measurement,setting,value
CCc1nc(C(N)=O)c(Nc2ccc(N3CCC(N4CCN(C)CC4)CC3)c(OC)c2)nc1NC1CCOCC1 [gilteritinib],"Elevated blood phosphocreatine kinase, Grade 4",human,4 (1·6%) n (%)
same,"Epistaxis, Grade 1",human,36 (14%) n (%)
same,"Epistaxis, Grade 2",human,9 (4%) n (%)
same,"Fall, Grade 1",human,17 (7%) n (%)
same,"Fall, Grade 2",human,10 (4%) n (%)
same,"Fall, Grade 3",human,7 (3%) n (%)
same,"Fall, Grade 4",human,1 (0.4) n (%)
same,"Fatigue, Grade 1",human,31 (12%) n (%)
same,"Fatigue, Grade 2",human,37 (15%) n (%)
same,"Fatigue, Grade 3",human,15 (6%) n (%)
same,"Febrile neutropenia, Grade 3",human,9 (36%) n (%)
same,"Febrile neutropenia, Grade 4",human,7 (3%) n (%)
same,"Febrile neutropenia, Grade 5",human,1 (0·4%) n (%)
same,"Fungal pneumonia, Grade 3",human,11 (4%) n (%)
same,"Gastrointestinal hemorrhage, Grade 3",human,4 (1·6%) n (%)
same,"Gastrointestinal hemorrhage, Grade 4",human,1 (0·4%) n (%)
same,Grade 3/4 adverse event: anemia,human,24%
same,Grade 3/4 adverse event: febrile neutropenia,human,39%
same,Grade 3/4 adverse event: pneumonia,human,11%
same,Grade 3/4 adverse event: sepsis,human,11%
same,Grade 3/4 adverse event: thromobocytopenia,human,13%
same,"Headache, Grade 1",human,22 (9%) n (%)
same,"Headache, Grade 2",human,6 (2%) n (%)
same,"Hyperglycemia, Grade 3",human,8 (3%) n (%)
same,"Hyperglycemia, Grade 4",human,1 (0·4%) n (%)
same,"Hyperphosphatemia, Grade 3",human,14 (6%) n (%)
same,"Hyperphosphatemia, Grade 4",human,3 (1·2%) n (%)
same,"Hypertension, Grade 1",human,6 (2%) n (%)
same,"Hypertension, Grade 2",human,11 (4%) n (%)
same,"Hypertension, Grade 3",human,8 (3%) n (%)
same,"Hyperuricemia, Grade 3",human,5 (2%) n (%)
same,"Hyperuricemia, Grade 4",human,1 (0·4%) n (%)
same,"Hypoalbuminemia, Grade 1",human,5 (2%) n (%)
same,"Hypoalbuminemia, Grade 2",human,22 (9%) n (%)
same,"Hypoalbuminemia, Grade 3",human,5 (2%) n (%)
same,"Hypocalcaemia, Grade 1",human,13 (5%) n (%)
same,"Hypocalcaemia, Grade 2",human,15 (6%) n (%)
same,"Hypocalcaemia, Grade 3",human,14 (6%) n (%)
same,"Hypocalcaemia, Grade 4",human,1 (0·4%) n (%)
same,"Hypokalaemia, Grade 1",human,22 (9%) n (%)
same,"Hypokalaemia, Grade 2",human,14 (6%) n (%)
same,"Hypokalaemia, Grade 3",human,7 (3%) n (%)
same,"Hypokalaemia, Grade 4",human,2 (0·8%) n (%)
same,"Hypomagnesemia, Grade 1",human,29 (12%) n (%)
same,"Hypomagnesemia, Grade 2",human,2 (0·8%) n (%)
same,"Hyponatraemia, Grade 1",human,18 (7%) n (%)
same,"Hyponatraemia, Grade 2",human,4 (1·6%) n (%)
same,"Hyponatraemia, Grade 3",human,10 (4%) n (%)
same,"Hyponatraemia, Grade 4",human,2 (0·8%) n (%)
same,"Hypotension, Grade 1",human,7 (3%) n (%)
same,"Hypotension, Grade 2",human,21 (8%) n (%)
same,"Hypotension, Grade 3",human,16 (6%) n (%)
same,"Hypotension, Grade 4",human,2 (0·8%) n (%)
same,"Hypoxia, Grade 1",human,1 (0·4%) n (%)
same,"Hypoxia, Grade 2",human,8 (3%) n (%)
same,"Hypoxia, Grade 3",human,13 (5%) n (%)
same,"Hypoxia, Grade 4",human,5(2%) n (%)
same,"Hypoxia, Grade 5",human,1 (0·4%) n (%)
same,"Increased transaminase, Grade 3",human,6 (2%) n (%)
same,"Insomnia, Grade 1",human,14 (6%) n (%)
same,"Insomnia, Grade 2",human,10 (4%) n (%)
same,"Leukocytosis, Grade 3",human,9 (4%) n (%)
same,"Leukocytosis, Grade 4",human,2 (0·8%) n (%)
same,"Leukopenia, Grade 3",human,2 (0·8%) n (%)
same,"Leukopenia, Grade 4",human,3 (1·2%) n (%)
same,"Lung infection, Grade 3",human,7 (3%) n (%)
same,"Lung infection, Grade 5",human,1 (0·4%) n (%)
same,"Mucosal inflammation, Grade 3",human,5 (2%) n (%)
same,"Mucosal inflammation, Grade 4",human,2 (0·8%) n (%)
same,"Multi-organ failure, Grade 5",human,7 (3%) n (%)
same,"Muscle weakness, Grade 3",human,5 (2%) n (%)
same,"Nausea, Grade 1",human,30 (12%) n (%)
same,"Nausea, Grade 2",human,19 (8%) n (%)
same,"Nausea, Grade 3",human,5 (2%) n (%)
same,"Neutropenia, Grade 2",human,2 (0·8%) n (%)
same,"Neutropenia, Grade 3",human,2 (0·8%) n (%)
same,"Neutropenia, Grade 4",human,18 (7%) n (%)
same,"Neutropenia, Grade 5",human,1 (0·4%) n (%)
same,Patients requiring dose reductions,human,10%
same,Patients with maximum post-baseline QTcF interval >500 ms,human,4%
same,"Pleural effusion, Grade 3",human,5 (2%) n (%)
same,"Pneumonia, Grade 1",human,1 (0·4%) n (%)
same,"Pneumonia, Grade 2",human,3 (1·2%) n (%)
same,"Pneumonia, Grade 3",human,26 (10%) n (%)
same,"Pneumonia, Grade 4",human,1 (0·4%) n (%)
same,"Pneumonia, Grade 5",human,4 (1·6%) n (%)
same,"Progressive AML, Grade 3",human,2 (0.8) n (%)
same,"Progressive AML, Grade 5",human,41 (16%) n (%)
same,"Pyrexia, Grade 1",human,36 (14%) n (%)
same,"Pyrexia, Grade 2",human,16 (6%) n (%)
same,"Pyrexia, Grade 3",human,13 (5%) n (%)
same,"QT Prolongation, Grade 3",human,8 (3%) n (%)
same,"Respiratory failure, Grade 3",human,2 (0·8%) n (%)
same,"Respiratory failure, Grade 4",human,5 (2%) n (%)
same,"Respiratory failure, Grade 5",human,7 (3%) n (%)
same,"Sepsis, Grade 2",human,1 (0·4%) n (%)
same,"Sepsis, Grade 3",human,5 (2%) n (%)
same,"Sepsis, Grade 4",human,23 (9%) n (%)
same,"Sepsis, Grade 5",human,7 (3%) n (%)
same,"Septic shock, Grade 4",human,2 (0·8%) n (%)
same,"Septic shock, Grade 5",human,4 (1·6%) n (%)
same,Serious AE considered related to treatment: acute renal failure,human,2%
same,Serious AE considered related to treatment: febrile neutropenia,human,2%
same,Serious AE considered related to treatment: pyrexia,human,1%
same,Serious AE considered related to treatment: sepsis,human,1%
same,Serious adverse event: acute renal failure,human,10%
same,Serious adverse event: bacteremia,human,6%
same,Serious adverse event: febrile neutropenia,human,31%
same,Serious adverse event: pneumonia,human,11%
same,Serious adverse event: progressive disease,human,17%
same,Serious adverse event: pyrexia,human,8%
same,Serious adverse event: respiratory failure,human,6%
same,Serious adverse event: sepsis,human,14%
same,"Skin infection, Grade 3",human,5 (2%) n (%)
same,"Stomatitis, Grade 1",human,12 (5%) n (%)
same,"Stomatitis, Grade 2",human,10 (4%) n (%)
same,"Subdural hematoma, Grade 3",human,4 (1·6%) n (%)
same,"Subdural hematoma, Grade 4",human,2 (0·8%) n (%)
same,"Syncope, Grade 3",human,13 (5%) n (%)
same,"Thrombocytopenia, Grade 1",human,1 (0·4%) n (%)
same,"Thrombocytopenia, Grade 2",human,5 (2%) n (%)
same,"Thrombocytopenia, Grade 3",human,2 (0·8%) n (%)
same,"Thrombocytopenia, Grade 4",human,31 (12%) n (%)
same,Treatment-related mortality from neutropenia,human,< 1%
same,"Vomiting, Grade 1",human,35 (14%) n (%)
same,"Vomiting, Grade 2",human,7 (3%) n (%)
same,"Vomiting, Grade 3",human,5 (2%) n (%)
same,Deaths considered possibly/probably related to treatment,,Seven
